The source of these data is US20180186815A1, “PHARMACEUTICAL COMPOSITIONS, METHODS FOR THEIR PREPARATION AND THEIR USE IN THE TREATMENT OF CANCER” (Urifer Ltd., priority 2016, published 2018).

Common to all, as to type: cell-based
Data set [1] in a line: Viability of FS non malignant fibroblastic cells, XTT test. The following applies: FS cells (non-malignant fibroblastic cell line), Control DMSO = 100%, read-out: percentage of viable cells, FS. The method, then:
(§1) The effect of the compounds Z522-XXX on the growth profile of cancer cells which express Fer was tested. The cells that were tested were: the colon cancer cell lines HT29 and HCT 116, RKO. The effect of each of the compounds on FS cells, a non malingnant fibroblastic cell line, was also studied.
(§2) Generally, cells were seeded in 96 wells microplates and were left to grow untreated overnight. Each of the compounds was dissolved in DMSO and was then added to each well in a final concentration of 5 μM. The concentration of DMSO in each well was 0.4% v/v. Untreated cells and cells subjected to 0.4% DMSO alone, served as controls. The percentage of viable cells in each well was determined 96 hours after compounds addition, using the XTT test (Berridge, M. V. et al, 2005).
(Tetrazolium assays rely on reduction of a dye to a coloured formazan, in cell work by metabolically active cells.)

Data set [2] concerns colon cancer cell line RKO. The data set can be described thus: Growth profile / viability of RKO colon cancer cells, XTT test. The following applies: 96 h, Control DMSO = 100%, read-out: percentage of viable cells, RKO. How it is done: as §1, §2
Data set [3] deals with colon cancer cell line HT29. The data set can be described thus: Growth profile / viability of HT29 colon cancer cells, XTT test. The following applies: Homo sapiens, HT-29, 96 h, Control DMSO = 100%, read-out: percentage of viable cells, HT29. How it is done: as §1, §2
Data set [4] has as its system colon cancer cell line HCT 116. The data set can be described thus: Growth profile / viability of HCT116 colon cancer cells, XTT test. The following applies: Homo sapiens, HCT-116, 96 h, Control DMSO = 100%, read-out: percentage of viable cells, HCT116. How it is done: as §1, §2

Like-named read-outs stand apart in the source and are kept apart here.

In the case of `Cc1c(-c2ccc(-n3cccn3)cc2)nc2sc(N3CCC(C(=O)N4CCN(C)CC4)CC3)nn12` [Compound Z522-0187, 5-methyl-2-{4-[(4-methyl-piperazin-1-yl)-carbonyl]piperidin-1-yl}-6-[4-(1H-pyrazol-1-yl)-phenyl]imidazo[2,1-b][1,3,4]-thiadiazole], the figures for the viability at 96 h, 5 µM in data set [1] (first FS column) and in data set [1] (second FS column) were 92% and 94%, respectively. The viability at 5 µM was 56% in data set [2] (first RKO column); 56% in data set [2] (second RKO column); 99% in data set [3] (first HT29 column); 111% in data set [3] (second HT29 column); 110% in data set [4] (first HCT116 column); 97% in data set [4] (second HCT116 column).

As to `Cc1ccc(C)n1CCN1CCN(C(=O)C2CCN(c3nn4cc(-c5ccc(Cl)cc5)nc4s3)CC2)CC1` [Compound Z522-0209, 6-(4-chlorophenyl)-2-[4-({4-[2-(2,5-dimethyl-1H-pyrrol-1-yl)ethyl]piperazin-1-yl}carbonyl)piperidin-1-yl]imidazo[2,1-b][1,3,4]thiadiazole], the viability at 96 h, 5 µM was found to be 89% in data set [1] (first FS column) and 96% in data set [1] (second FS column). The viability at 5 µM in data set [2] (first RKO column) worked out at 52%; in data set [2] (second RKO column), 55%; in data set [3] (first HT29 column), 25%; in data set [3] (second HT29 column), 30%; in data set [4] (first HCT116 column), 71%; in data set [4] (second HCT116 column), 59%.

Take `CC(C)N1CCN(c2ccc(-c3cn4nc(N5CCC(C(=O)N6CCN(C)CC6)CC5)sc4n3)cc2)CC1` [Compound Z522-0174, 6-[4-(4-isopropyl-piperazin-1-yl)-phenyl]-2-{4-[(4-methylpiperazin-1-yl)carbonyl]-piperidin-1-yl}-imidazo[2,1-b]-[1,3,4]thiadiazole]: the viability at 96 h, 5 µM in data set [1] (first FS column) was 117%; in data set [1] (second FS column), 113%. Moreover, the viability at 5 µM stood at 93% in data set [2] (first RKO column); 97% in data set [2] (second RKO column); 77% in data set [3] (first HT29 column); 78% in data set [3] (second HT29 column); 105% in data set [4] (first HCT116 column); 124% in data set [4] (second HCT116 column).

Turning to `CC1CCN(c2ccc(-c3cn4nc(N5CCC(C(=O)N6CCN(C)CC6)CC5)sc4n3)cc2)CC1` [Compound Z522-0170, 2-{4-[(4-methyl-piperazin-1-yl)carbonyl]piperidin-1-yl}-6-[4-(4-methylpiperidin-1-yl)phenyl]-imidazo[2,1-b]-[1,3,4]thiadiazole], the viability at 96 h, 5 µM in data set [1] (first FS column) turned out to be 90%; in data set [1] (second FS column), 68%. Moreover, the viability at 5 µM is 3% in data set [2] (first RKO column); 4% in data set [2] (second RKO column); 5% in data set [3] (first HT29 column); 2% in data set [3] (second HT29 column); 2% in data set [4] (first HCT116 column); 3% in data set [4] (second HCT116 column).

Consider `Cc1ccc(C)n1CCN1CCN(C(=O)C2CCN(c3nn4cc(-c5ccc(C(C)C)cc5)nc4s3)CC2)CC1` [Compound Z522-0232, 2-[4-({4-[2-(2,5-dimethyl-1H-pyrrol-1-yl)ethyl]piperazin-1-yl}carbonyl)piperidin-1-yl]-6-(4-isopropylphenyl) imidazo[2,1-b][1,3,4]thiadiazole], for which the viability at 96 h, 5 µM was 106% in data set [1] (first FS column) and 93% in data set [1] (second FS column). The viability at 5 µM in data set [2] (first RKO column) was 35%; in data set [2] (second RKO column), 38%; in data set [3] (first HT29 column), 20%; in data set [3] (second HT29 column), 22%; in data set [4] (first HCT116 column) it was 79%; in data set [4] (second HCT116 column) it was 68%.

Turning to `CC(C)c1ccc(-c2cn3nc(N4CCC(C(=O)N5CCN(CC(=O)NCCN(C)C)CC5)CC4)sc3n2)cc1` [Compound Z522-0241, N-[2-(dimethylamino)ethyl]-2-[4-({1-[6-(4-isopropylphenyl)imidazo[2,1-b][1,3,4]thiadiazol-2-yl]piperidin-4-yl}carbonyl)piperazin-1-yl]acetamide], the results for the viability at 96 h, 5 µM in data set [1] (first FS column) and in data set [1] (second FS column) were 78% and 88%, respectively. The viability at 5 µM is 0% in data set [2] (second RKO column); 0% in data set [3] (first HT29 column); 0% in data set [3] (second HT29 column); 33% in data set [4] (first HCT116 column); 36% in data set [4] (second HCT116 column).

Consider `O=C(C1CCN(c2nn3cc(-c4ccc(Cl)cc4)nc3s2)CC1)N1CCCN(c2ncccn2)CC1` [Compound Z522-0219, 6-(4-chlorophenyl)-2-{4-[(4-pyrimidin-2-yl-1,4-diazepan-1-yl)carbonyl]piperidin-1-yl}imidazo[2,1-b][1,3,4]thiadiazole], for which the viability at 96 h, 5 µM in data set [1] (first FS column) is 89%; in data set [1] (second FS column), 94%. For the same compound, the viability at 5 µM in data set [2] (first RKO column) was determined as 48%; in data set [2] (second RKO column) it was 45%; in data set [3] (first HT29 column), 91%; in data set [3] (second HT29 column) it was 95%; in data set [4] (first HCT116 column), 75%; in data set [4] (second HCT116 column), 67%.

For the compound `Cc1c(-c2ccc(N(C)CCO)cc2)nc2sc(N3CCC(C(=O)N4CCN(C)CC4)CC3)nn12` [Compound Z522-0197, 2-{methyl[4-(5-methyl-2-{4-[(4-methylpiperazin-1-yl)carbonyl]-piperidin-1-yl}-imidazo[2,1-b]-[1,3,4]thiadiazol-6-yl)phenyl]-amino}ethanol], the viability at 96 h, 5 µM was determined as 113% in data set [1] (first FS column) and 104% in data set [1] (second FS column). Further, the viability at 5 µM in data set [2] (first RKO column) was 111%; in data set [2] (second RKO column), 117%; in data set [3] (first HT29 column), 102%; in data set [3] (second HT29 column) it was 110%; in data set [4] (first HCT116 column), 95%; in data set [4] (second HCT116 column) it was 108%.

Regarding `CN1CCN(C(=O)CN2CCN(C(=O)C3CCN(c4nn5cc(-c6ccc(Cl)cc6)nc5s4)CC3)CC2)CC1` [Compound Z522-0215, 6-(4-chlorophenyl)-2-[4-({4-[2-(4-methylpiperazin-1-yl)-2-oxoethyl]piperazin-1-yl}carbonyl)piperidin-1-yl]imidazo[2,1-b][1,3,4]thiadiazole], the viability at 96 h, 5 µM in data set [1] (first FS column) came out at 85%; in data set [1] (second FS column), 109%. Also, the viability at 5 µM turned out to be 6% in data set [2] (first RKO column); 10% in data set [2] (second RKO column); 14% in data set [3] (first HT29 column); 11% in data set [3] (second HT29 column); 63% in data set [4] (first HCT116 column); 58% in data set [4] (second HCT116 column).

Turning to `CC(C)c1ccc(-c2cn3nc(N4CCC(C(=O)N5CCCCC5CCN5CCCCC5)CC4)sc3n2)cc1` (stereo not drawn) [Compound Z522-0233, 6-(4-isopropylphenyl)-2-(4-{[2-(2-piperidin-1-ylethyl)piperidin-1-yl]carbonyl}piperidin-1-yl)imidazo[2,1-b][1,3,4]thiadiazole], the viability at 96 h, 5 µM in data set [1] (second FS column) amounted to 3%. Further, the viability at 5 µM in data set [2] (second RKO column) amounted to 0%; in data set [3] (first HT29 column), 1%; in data set [3] (second HT29 column), 0%; in data set [4] (first HCT116 column) it was 1%.

Take `Cc1c(-c2ccc(N3CCCC3)cc2)nc2sc(N3CCC(C(=O)N4CCN(C)CC4)CC3)nn12` [Compound Z522-0195, 5-methyl-2-{4-[(4-methyl-piperazin-1-yl)carbonyl]piperidin-1-yl}-6-(4-pyrrolidin-1-ylphenyl)imidazo [2,1-b][1,3,4]-thiadiazole]: the viability at 96 h, 5 µM in data set [1] (first FS column) came to 109%; in data set [1] (second FS column), 119%. Moreover, the viability at 5 µM in data set [2] (first RKO column) was 80%; in data set [2] (second RKO column), 75%; in data set [3] (first HT29 column), 91%; in data set [3] (second HT29 column), 82%; in data set [4] (first HCT116 column), 111%; in data set [4] (second HCT116 column), 113%.
